Data set [1] has as its system MC38 cells. Nature of the data set: Apoptosis flow cytometry assay (FITC Annexin V/PI). Type of data set: cell-based, murine. Particulars: for apoptosis induction in MC38 cells: agent alone: Venetoclax 3 μM, Doxorubicin 1 μM, Docetaxel 10 μM, Simvastatin 10 μM. On the procedure:
Cell lines and drugs: MC38 and B16 cell lines were derived from C57BL6 murine colon adenocarcinoma and melanoma cells, respectively. The cells were maintained in Dulbecco's modified Eagle's medium (DMEM) supplemented with 10% heat-inactivated fetal bovine serum (FBS) and 100 U/mL penicillin/streptomycin. The CT26 cells were derived from murine colon adenocarcinoma cells and cultured in RPMI1640 with 10% FBS and 2 mM GlutaMAX.
Apoptosis flow cytometry assay: FITC Annexin V Apoptosis Detection Kit with PI (BioLegend) was used for apoptosis detection. The MC38 cells were seeded in 24-well plate with 1×10^5 cells/well and cultured overnight. […] After 24 hours treatment, cells were collected and dissociated as single cell suspensions for Annexin V/PI staining. In briefing, cells were washed twice with cold BioLegend's Cell Staining Buffer, then resuspended in […] Annexin V Binding Buffer. […] FITC Annex V and […] Propidium Iodide (PI) Solution were added in each sample. The samples were gently vortexed and incubated for 15 minutes at room temperature in the dark. Wash the samples with Cell Staining Buffer one time and resuspend cells in […] Cell Staining Buffer for flow cytometry analysis. The data were recorded on BD Accuri™ C6 plus flow Cytometer and analyzed with FlowJo software.

The target in data set [2] is T1, caspase-3 (Homo sapiens, UniProt P42574).
T1 sequence (P42574 29-175 limits assumed): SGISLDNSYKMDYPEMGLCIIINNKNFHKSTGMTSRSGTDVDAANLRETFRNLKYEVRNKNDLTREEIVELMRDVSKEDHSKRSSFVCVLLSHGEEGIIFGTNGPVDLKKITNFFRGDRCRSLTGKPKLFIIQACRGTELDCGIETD
T1 sequence (P42574 176-277 limits assumed): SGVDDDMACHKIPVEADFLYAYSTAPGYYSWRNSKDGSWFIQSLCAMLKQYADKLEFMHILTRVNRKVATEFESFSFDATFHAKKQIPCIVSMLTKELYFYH
Nature of the data set: Caspase activity in MiaPaca-2 tumor cells (FIG. 10c). The format is cell-based. Also on record: endogenous in cells; host or cells: MiaPaca-2 cells.

The target in data set [3] is T2, caspase-3 (Mus musculus, UniProt P70677).
T2 construct: the cells were lysed in 25 μL 1× lysis buffer on ice for 20 min; endogenous in cells; host or cells: MC38 cells (lysate)
T2 sequence (P70677 29-175 limits assumed): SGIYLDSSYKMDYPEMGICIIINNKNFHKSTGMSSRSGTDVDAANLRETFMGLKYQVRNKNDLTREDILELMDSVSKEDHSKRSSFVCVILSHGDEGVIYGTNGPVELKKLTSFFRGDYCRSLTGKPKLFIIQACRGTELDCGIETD
T2 sequence (P70677 176-277 limits assumed): T1 sequence (P42574 176-277 limits assumed) with V3T, D5E, D6E, H10Q, A46S, Q50L, D53H, F77L, A79S
Kind of data set: Caspase-3 activity assay in MC38 cells. Type of data set: cell-based, murine. On the procedure:
Caspase-3 activity assay: Caspase-3 activity was measured by using Sigma Caspase 3 Assay Kit, Fluorimetric. In brief, MC38 cells were cultured in 96-well plates and treated with Docetaxel and Docetaxel/Emricasan combination, respectively. Dose-dependent effect of Docetaxel on caspase-3 activity was tested in MC38 cells; Docetaxel/Emricasan combination treatment was applied to reverse Docetaxel induced caspase-3 activity. After 24 h drug treatment, the cells were lysed in 25 μL 1× lysis buffer on ice for 20 min, then added 200 μL of 16.7 μM Ac-DEVD-AMC substrate solution to incubate at RT in the dark for 30 min. The fluorescent signals were read in BioTek Synergy 4 plate reader at excitation 360 nm and emission 460 nm.

In data set [4] the test system is MiaPaca-2. Nature of the data set: Tumor cell killing / cytotoxicity, MiaPaca-2 (FIG. 11c). The format is cell-based. Particulars: with 10 μM of emricasan.
The test system of data set [5] is MC38 model. Nature of the data set: In vivo tumor growth study, MC38 model. Also on record: species or system mice. On the procedure: (§1) In vivo studies: Female C57BL6 and Balb/C mice of 9 weeks of age were obtained from the Jackson lab, ME. Passages were made twice weekly with a 1:2 split and cultured in DMEM:F12 supplemented with 10% FBS (HyClone, Ft. Collins, Colo.). For inoculation, approximately 5-8×10^5 cells were suspended in 100 μL of PBS (Becton Dickinson Labware, Bedford, Mass.) and injected subcutaneously into the flanks of mice. Most mice developed palpable tumors within 5 days of inoculation. Tumor bearing mice are grouped in cohorts of 5-8 mice for dosing studies. Mice with tumor sizes of 50-100 mm^3 are randomized between treatment groups. Baseline tumor volumes were established and dosing initiation began on day 0. Emricasan was administered as a salt intratumorally or interperitoneally for 3-4 days. If docetaxel was used, it was administered interperitoneally or intravenously in Tween80/PEG300 or Tween80/ethanol with PBS the day before emricasan was given. Emricasan and docetaxel were co-formulated in Tween80/PEG300 and co-administered intratumorally after diluting with PBS. Tumor volumes were measured twice a week using standard calipers and calculated as […], with the length and width defined as the long and short axes, respectively. Measurement of body weight was initiated on day 0 and repeated once a week.

Data set [6] relates to IFNβ. Kind of data set: Interferon-beta (IFNβ) ELISA assay of MC38 cell culture supernatants. Type of data set: cell-based, murine. Particulars: 24 hours. As to the method: The concentration of IFNβ was measured with VeriKine-HS Interferon Beta Serum ELISA Kit (PBL Assay Science) in accordance with the manufacturer's instruction. The data of absorbance was recorded at 450 nm by using BioTek synergy 4 plate reader and analyzed with GraphPad software.

For data set [7], the system named is MC38 cells. Nature of the data set: Tumor cell killing / cytotoxicity, MC38 (FIG. 11a). Type of data set: cell-based, murine.
Data set [8] has as its system PD-L1. Nature of the data set: PD-L1 expression flow cytometry assay. The format is cell-based, murine. As to conditions: MC38 cells; 1 μM Docetaxel, 10 μM Emricasan, or the combination; 24 h; FIG. 21. On the procedure:
PD-L1 expression flow cytometry assay: Cell surface PD-L1 expression was detected by flow cytometry assay. The cells were plated in 24-well plates and treated with 1 μM Docetaxel, 10 μM Emricasan, and the combination of the two drugs. Untreated cells were used as a control. After 24 h of treatment, the cells were dissociated and harvested for PD-L1 staining with BioLegend PE anti-mouse PD-L1 antibody (MIH7 clone). The PD-L1 expression was measured in BD Accuri C6 Plus flow cytometer, The mean density of PD-L1 was analyzed by FlowJo V10 software.
Background: A flow cytometer gives signals particle by particle.

For data set [9], the target named is T1, caspase-3. Nature of the data set: Caspase activity in A549 tumor cells (FIG. 10b). The format is cell-based. Also on record: endogenous in cells; host or cells: A549 cells.
The subject of data set [10] is A549. Kind of data set: Tumor cell killing / cytotoxicity, A549 (FIG. 11b). The format is cell-based. Particulars: with 10 μM of emricasan.
Data set [11] deals with CT26 model. Nature of the data set: In vivo tumor growth study, CT26 model. More on the design: species or system mice. As to conditions: emricasan amine salt intratumorally 5 mpk and 10 mpk q.d 4 days, FIG. 20. As to the method: as §1, with “Mice with tumor sizes of 50-100 mm^3 are randomized between treatment groups.” left out
Data set [12] deals with B16 model. Kind of data set: In vivo tumor growth study, B16 model. More on the design: species or system mice. As to conditions: emricasan amine salt intratumorally 5 mpk and 10 mpk q.d 4 days, FIG. 19. On the procedure: as §1, with “Mice with tumor sizes of 50-100 mm^3 are randomized between treatment groups.” left out
The mark [13] stands for this setting: agent alone: simvastatin 10 μM, venetoclax 3 μM, doxorubicin 1 μM, docetaxel 10 μM.

Changes are numbered by the printed parent chain. “Also recorded” adds a separate entry of the source.

With `CC(=O)O[C@@]12CO[C@@H]1C[C@H](O)[C@@]1(C)C(=O)[C@H](O)C3=C(C)[C@@H](OC(=O)[C@H](O)[C@@H](NC(=O)OC(C)(C)C)c4ccccc4)C[C@@](O)([C@@H](OC(=O)c4ccccc4)[C@H]21)C3(C)C` [docetaxel], in data set [1] (24 hours), the “apoptosis induction in MC38 cells” value is recorded as “induced substantial apoptosis”. Moreover, the “docetaxel concentration activating caspase most efficiently” value was ~1 µM in data set [2] (MiaPaca-2); ~1 µM in data set [3] (MC38 cells, 24 h, FIG. 10a); ~1 µM in [9] (A549). Also, the “docetaxel concentration killing tumor cells more efficiently” value is ~1 µM in [4]; ~1 µM in data set [7] (MC38, with 10 μM of emricasan, FIG. 11a); ~1 µM in data set [10]. Also, in [5] (docetaxel 30 mpk single dose intraperitoneal (FIG. 14) or intravenous (FIG. 15), emricasan intratumoral 10 mpk q.d 3-4 days after docetaxel), the “tumor control, systemic docetaxel added to intratumoral emricasan” value is recorded as “improved tumor control of emricasan”. Also, in [6] (setting [13]), the “IFNβ production in MC38 cells” value is on record as “slightly reduced IFNβ production”. In [7] (several tumor cells (FIG. 11a-c: MC38, A549, MiaPaca-2)), the “cytotoxicity in several tumor cells” value was “showed cytotoxicity”. For the same compound, the “PD-L1 expression on tumor cells” value in data set [8] is listed as “upregulating PD-L1 expression”.
Take `COc1cccc2c1C(=O)c1c(O)c3c(c(O)c1C2=O)C[C@@](O)(C(=O)CO)C[C@@H]3O[C@H]1C[C@H](N)[C@H](O)[C@H](C)O1` [doxorubicin]: the “apoptosis induction in MC38 cells” value in data set [1] (24 hours) is listed as “induced substantial apoptosis”. In addition, the “IFNβ production in MC38 cells” value in [6] (setting [13]) is recorded as “slightly reduced IFNβ production”.
`C[C@H](NC(=O)C(=O)Nc1ccccc1C(C)(C)C)C(=O)N[C@@H](CC(=O)O)C(=O)COc1c(F)c(F)cc(F)c1F` [emricasan, (S)-3-((S)-2-(2-((2-(tert-butyl)phenyl)amino)-2-oxoacetamido)propanamido)-4-oxo-5-(2,3,5,6-tetrafluorophenoxy)pentanoic acid]: in data set [1] (addition of 10 μM emricasan to Docetaxel 10 μM, 24 hours, FIG. 5), the “apoptosis induced by docetaxel” value is recorded as “significantly reduced the apoptosis”. Further, the “apoptosis induced by doxorubicin” value in data set [1] (addition of 10 μM emricasan to Doxorubicin 1 μM, 24 hours, FIG. 4) was “significantly reduced the apoptosis”. Further, in data set [1] (addition of 10 μM emricasan to Simvastatin 10 μM, 24 hours, FIG. 2), the “apoptosis induced by simvastatin” value is listed as “significantly reduced the apoptosis”. In addition, the “apoptosis induced by venetoclax” value in [1] (addition of 10 μM emricasan to Venetoclax 3 μM, 24 hours, FIG. 3) is “significantly reduced the apoptosis”. Moreover, the “apoptosis in MC38 cells” value in data set [1] (emricasan alone, 24 hours treatment, FIG. 1) is given as “partially blocked the apoptosis”. In addition, the “inhibition of caspase activity in tumor cells” value is listed as “fully inhibiting the caspase activity” in data set [2] (10 μM of emricasan, docetaxel-treated MiaPaca-2); “fully inhibiting the caspase activity” in data set [3] (10 μM of emricasan, docetaxel-treated MC38 cells, FIG. 10a); “fully inhibiting the caspase activity” in [9] (10 μM of emricasan, docetaxel-treated A549). Further, the tumor control efficacy entry in [11] and in data set [12] was “produced tumor control efficacy” each time. Besides, the “concentration at which emricasan began to effectively inhibit the caspase-3 activity” value in [3] (tumor cells, FIG. 10a-c) was ~1 µM. In addition, the “concentration at which emricasan reached the maximum activity (caspase-3 inhibition)” value in data set [3] (tumor cells, FIG. 10a-c) was ~10 µM. For the same compound, the “rejection of rechallenged tumor in cured mice” value in [5] (cured mice from the FIG. 15 study, rechallenged, FIG. 16) is on record as “able to reject rechallenged tumor; also recorded: able to reject rechallenged tumors more efficiently”. For the same compound, in data set [5] (docetaxel intravenous 50 mpk single dose, emricasan intraperitoneal 20 mpk b.i.d 3 days after docetaxel, FIG. 18), the “systemic tumor control, systemic emricasan added to intravenous docetaxel” value is listed as “improved the systemic tumor control of intravenously administered docetaxel”. The distal tumor control entry in data set [5] (emricasan alone intratumorally 10 mpk q.d 4 days, FIG. 13) is recorded as “moderate”. In [5] (emricasan alone intratumorally 10 mpk q.d 4 days, small MC38 tumors (~50 mm^3), FIG. 12), the “tumor control at the site of injection” value is “able control small MC38 tumors”. The “number of cured mice” value in [5] (study of FIG. 15: docetaxel intravenous 30 mpk single dose, emricasan intratumoral 10 mpk q.d 4 days) is reported as 5 mice. Further, in [6] (addition of 10 μM emricasan to docetaxel 10 μM, FIG. 9), the “IFNβ production in docetaxel treated MC38 cells” value is recorded as “significantly enhanced the IFNβ production”. Further, the “IFNβ production in doxorubicin treated MC38 cells” value in data set [6] (addition of 10 μM emricasan to doxorubicin 1 μM, FIG. 8) is “significantly enhanced the IFNβ production”. Besides, in data set [6] (addition of 10 μM emricasan to simvastatin 10 μM, FIG. 7), the “IFNβ production in simvastatin treated MC38 cells” value was “significantly enhanced the IFNβ production”. Further, the “IFNβ production in MC38 cells” value in [6] (emricasan alone, FIG. 6) is recorded as “slightly enhanced the IFNβ production”. The “PD-L1 expression on tumor cells” value in [8] is on record as “upregulated the PD-L1 expression”.

Values taken from patent US20230145200A1, “COMPOSITIONS AND METHODS OF TREATING CANCER” (Tillead Therapeutics, Inc., priority 2020, published 2023).
